Experimental data as given in patent US20010041365A1, “Methods for monitoring alcohol consumption” (priority 2000, published 2001).
Like-named read-outs stand apart in the source and are kept apart here. Marks after values point to notes of the source that are not given here. Values belong to the molecule of their own block, whether it stands above or below them.

Legend:
[1] = Serum FAEE and blood ethanol over time in men and women after alcohol consumption over 90 minutes (Example 1); format: in vivo, human
Procedure: Seven volunteers (four men and […]) were given measured amounts of 100-proof vodka mixed with fruit juice in a 1:3 ratio which was weight-adjusted to increase blood ethanol levels to approximately 120-147 mg/dL. The beverage was divided in 9 equal aliquots which the subjects drank over a 90 minute period, 1 aliquot every 10 minutes. This alcohol intake represented consumption to the legal limit of intoxication. Once the drinking commenced, blood was collected from a catheter every 15 min for the first 2.5 h. Between 2.5 and 4.0 h, samples were collected every 30 min; and from 4 to 8 h, they were collected every 60 min. A final blood sample was also collected 24 h after the ethanol ingestion commenced. Blood was collected from a peripheral venous catheter into vacuum tubes without anti-coagulant (for serum FAEE) and into tubes with the anti-coagulant sodium citrate (for plasma ethanol). (Soderberg, et al., Clinical Chemistry, 45(12):2183-2190, 1999; Doyle, K. M. et al., JAMA, 276:1152-1156, 1996)
All samples were extracted with acetone/hexane (2/8, v/v) and dried under nitrogen vapors to a volume of approximately 300 μL. […] FAEEs were then quantitated by gas chromatography-mass spectrometry (GC-MS) using a Hewlett-Packard 5890 Series II gas chromatograph equipped with a Supelcowax SP-2330 capillary column coupled to an HP-5971 mass spectrometer.

[2] = Distribution of plasma FAEE species in chronic alcoholics vs. acutely intoxicated individuals (Example 6); format: in vivo, human; settings: for proportion of total FAEE, acute drinkers relative to chronic drinkers: plasma
Text: Plasma was obtained from chronic alcoholics (i.e. chronic drinkers) at the time of admission to a detoxification program. Acutely intoxicated control subjects used for comparison in this study were normal, healthy volunteers who also participated in the study concerning gender and alcoholic beverage type (see above).

[3] = Plasma FAEE levels in acute (binge) and chronic drinkers at peak ethanol levels and 24 hours after peak (Example 7); format: in vivo, human; settings: for mean difference between proportion of total FAEE which is ethyl stearate and proportion which is ethyl oleate: 24 hours after alcohol consumption; for average proportion of total FAEE which is ethyl oleate: peak or near peak ethanol levels; for concentration at 24 h: human, plasma, oral; for Proportion of Ethyl Oleate in Binge Drinkers (Mean +/− SEM) / Proportion of Ethyl Oleate in Binge Drinkers (range) / Proportion of Ethyl Oleate in Chronic Drinkers (Mean +/− SEM) / Proportion of Ethyl Oleate in Chronic Drinkers (range): of total FAEE in plasma
Procedure: Thus, as an example, gas chromatography either alone or in combination with mass spectrometry and/or an initial step of solid phase extraction can be used to determine total and/or individual fatty acid ethyl ester concentrations. […] If the sample has been previously harvested and frozen, it is thawed out and a 1 mL aliquot is removed for analysis. […] In order to determine and quantitate FAEE content, an internal standard of 1 nmol of ethyl heptadecanoate (ethyl 17:0) is added to each sample. Samples are extracted with acetone hexane (2:8, by volume) and dried under nitrogen vapors to a volume of approximately 300 μL. FAEEs are isolated by solid phase extraction using Bond Elut-LRC aminopropyl columns. Columns are pre-washed with dichloromethane followed by hexane; the sample is then applied to the column and eluted by successive washes of hexane and dichloromethane. Combined eluates are concentrated, and FAEEs are then quantified by GC-MS using a Hewlett Packard 5890 Series II gas chromatograph equipped with a Supelcowax SP-2330 capillary column coupled to an HP-5971 mass spectrometer. The injector and detector are maintained at 260° C. and 280° C., respectively. The oven program is initially maintained at 130° C. for 2 minutes then ramped to 160° C. at 5° C./min, ramped again at 2° C./min to 180° C., held for 7 min, finally, ramped to 230° C. at 15° C/min and maintained for 2 min. Carrier gas flow rate is maintained at a constant 0.8 mL/min throughout. Single-ion monitoring is performed, quantifying appropriate base ions for individual FAEE species [i.e., ions m/z 67, 88, and 101 for ethyl palmitate (E16:0), ethyl heptadecanoate (E17:0), ethyl stearate (E18:0), ethyl oleate (E18:1), and ethyl linoleate (E18.2); and ions m/z 79 and 91 for ethyl arachidonate (E20:4), ethyl eicosapentaenoate (E20:5), and ethyl docosahexaenoate (E22:6)]. FAEEs are quantitated by interpolation of the slope generated from individually prepared calibration curves comparing areas of varying concentrations of E16:0-E22:6 to fixed concentrations of the internal standard (E17:0). Mass relationships are obtained for each FAEE using its individual calibration curve. Total FAEE mass is determined by the addition of masses of individual FAEEs (E16:0-E22:6).
A subset of human subjects presenting at the Massachusetts General Hospital with apparent alcohol related symptoms were entered into this study. Blood was collected from such subjects immediately at the time of presentation, which was assumed to be at peak or near peak ethanol levels, and again 24 hours after presentation. A medical history taken from each subject was used to categorize the subject as a chronic alcoholic or an acute (i.e., binge) drinker. Blood samples were processed, as described herein, to determine the absolute levels of ethyl palmitate, ethyl oleate and total FAEE in plasma.

[4] = Post-mortem liver and adipose FAEE as markers of pre-mortem ethanol intake (Example 9); format: in vivo; settings: autopsy tissue
Text: This study was approved by both the Massachusetts Medical Examiner Office Committee and the Massachusetts General Hospital Pathology Quality Assurance Committee. Twenty-four sets of samples were collected at the Massachusetts State Medical Examiner's Office and 7 sets of samples were obtained from the Pathology Department of Massachusetts General Hospital. Medical history, history of ethanol ingestion (obtained from the organ bank, treating physician, health insurance records, and/or relatives), and the blood ethanol level at autopsy were obtained in each case. Only cases with available blood ethanol levels were included in this study. Individuals who had detectable blood ethanol levels at the time of autopsy, with or without a history of ethanol abuse, were grouped as “positive for ethanol.” Individuals categorized in the chronic alcoholic or social drinker groups met all of the following criteria a) no known alcohol intake immediately prior to death; b) undetectable blood ethanol level in blood samples collected at autopsy; and c) no suspicious incident at the time of death. In addition, chronic alcoholics were diagnosed according to the Diagnostic and Statistical Manual-IV.
Samples of liver and adipose tissue were collected at autopsy from randomly selected cases and FAEE were isolated and quantitated from these organs as mass per gram wet weight. […]

[5] = a day after peak or near peak alcohol levels
[6] = binge drinkers, 24 hours after peak ethanol levels

Structure (SMILES): CCO [ethanol]
time at which blood ethanol decreased to initial levels ([1]; after the beginning of alcohol intake): about 500 minutes | maximum level of blood ethanol ([1]; both men and women): approximately 130 mg/dL

Structure (SMILES): CCCCC/C=C\C/C=C\C/C=C\C/C=C\CCCC(=O)OCC [ethyl arachidonate]
level in liver and adipose, individuals with detectable blood ethanol at autopsy compared with chronic alcoholics and social drinkers [4]: markedly higher

Structure (SMILES): CCCCCCCC/C=C\CCCCCCCC(=O)OCC [ethyl oleate]
percent of total FAEE in plasma ([2]; acute drinkers): about 30% | percent of total FAEE in plasma ([2]; chronic drinkers, at admission to detoxification program): ~75% | Concentration of Ethyl Oleate in Binge Drinkers (Mean +/− SEM) ([3]; 24 hours after peak): (14 ± 8) pmol/mL | Concentration of Ethyl Oleate in Chronic Drinkers (Mean +/− SEM) ([3]; 24 hours after peak): (2714 ± 1821) pmol/mL | proportion of total FAEE which is ethyl oleate [3, 6]: 10% | average proportion of total FAEE which is ethyl oleate ([3]; binge drinkers): 32% | proportion of total FAEE which is ethyl oleate ([3]; chronic drinkers, 24 hours after peak ethanol levels): 71% | average proportion of total FAEE which is ethyl oleate ([3]; chronic drinkers): 28% | concentration at 24 h ([3]; 24 hours after peak ethanol levels, read-out: concentration of ethyl oleate in the majority of binge drinkers (9 out of 13)): < 1 nM | concentration at 24 h ([3]; 24 hours after peak, read-out: Concentration of Ethyl Oleate in Binge Drinkers (range)): 0 to 80 nM | concentration at 24 h ([3]; 24 hours after peak, read-out: Concentration of Ethyl Oleate in Chronic Drinkers (range)): 120 to 28100 nM | Proportion of Ethyl Oleate in Binge Drinkers (Mean +/− SEM) ([3]; 24 hours after peak): (0.09 +/− 0.04) | Proportion of Ethyl Oleate in Binge Drinkers (range) ([3]; 24 hours after peak): 0.01-0.46 | Proportion of Ethyl Oleate in Chronic Drinkers (Mean +/− SEM) ([3]; 24 hours after peak): (0.71 +/− 0.02) | Proportion of Ethyl Oleate in Chronic Drinkers (range) ([3]; 24 hours after peak): 0.58-0.82 | Proportion of Ethyl Oleate in Binge Drinkers (Mean +/− SEM) ([3]; peak or near peak ethanol): (0.28 +/− 0.02) | Proportion of Ethyl Oleate in Binge Drinkers (range) ([3]; peak or near peak ethanol): 0.01-0.44 | Proportion of Ethyl Oleate in Chronic Drinkers (Mean +/− SEM) ([3]; peak or near peak ethanol): (0.32 +/− 0.02) | Proportion of Ethyl Oleate in Chronic Drinkers (range) ([3]; peak or near peak ethanol): 0.16-0.46 | Concentration of Ethyl Oleate in Binge Drinkers (Mean +/− SEM) ([3]; peak or near peak ethanol): (557 ± 82) pmol/mL | Concentration of Ethyl Oleate in Binge Drinkers (range) ([3]; peak or near peak ethanol): 184 to 1049 nM | Concentration of Ethyl Oleate in Chronic Drinkers (Mean +/− SEM) ([3]; peak or near peak ethanol): (2817 +/− 780) pmol/mL | Concentration of Ethyl Oleate in Chronic Drinkers (range) ([3]; peak or near peak ethanol): 96 to 16011 nM

Further lines, with some results ahead:

mean difference between proportion of total FAEE which is ethyl stearate and proportion which is ethyl oleate ([3]; binge drinkers): about 10% | mean difference between proportion of total FAEE which is ethyl stearate and proportion which is ethyl oleate ([3]; chronic alcoholics): roughly 70%
Structure (SMILES): CCCCCCCCCCCCCCCCCC(=O)OCC [ethyl stearate]
proportion of total FAEE, acute drinkers relative to chronic drinkers [2]: ~15 fold

Ethyl Palmitate to Ethyl Oleate Ratio in Chronic Drinkers (Mean +/− SEM) ([3]; 24 hours after peak): (0.41 +/− 0.03) | Ethyl Palmitate to Ethyl Oleate Ratio in Chronic Drinkers (range) ([3]; 24 hours after peak): 0.22-0.73 | Ethyl Palmitate to Ethyl Oleate Ratio in Binge Drinkers (Mean +/− SEM) ([3]; 24 hours after peak, mean calculated using a value of 100 where the ratio was ∞): (69.8 +/− 13.1)* | P/O ratio of all chronic drinkers [3, 5]: less than 1.0 | P/O ratio of most binge drinkers [3, 5]: ∞ | mean proportion of total FAEE which is ethyl palmitate [3, 6]: 80% | mean proportion of total FAEE which is ethyl palmitate ([3]; binge drinkers, peak or near peak alcohol levels): 49% | mean proportion of total FAEE which is ethyl palmitate ([3]; chronic alcoholics, 24 hours after peak ethanol levels): 29% | mean proportion of total FAEE which is ethyl palmitate ([3]; chronic alcoholics, peak or near peak alcohol levels): 38% | Ethyl Palmitate to Ethyl Oleate Ratio in Binge Drinkers (Mean +/− SEM) ([3]; peak or near peak): (6.28 +/− 5.0) | Ethyl Palmitate to Ethyl Oleate Ratio in Binge Drinkers (range) ([3]; peak or near peak): 0.96-70.65 | Ethyl Palmitate to Ethyl Oleate Ratio in Chronic Drinkers (Mean +/− SEM) ([3]; peak or near peak): (1.27 +/− 0.12) | Ethyl Palmitate to Ethyl Oleate Ratio in Chronic Drinkers (range) ([3]; peak or near peak): 0.53-3.49
Structure (SMILES): CCCCCCCCCCCCCCCC(=O)OCC [ethyl palmitate]
proportion of total FAEE, acute drinkers relative to chronic drinkers [2]: almost three times higher
